# ChEMBL document CHEMBL1152498, “Minor structural differences of monomethine cyanine derivatives yield strong variation in their interactions with DNA, RNA as well as on their in vitro antiproliferative activity” (Bioorg Med Chem, 2009)
# Calls of active or inactive are those of the source. The calls are words filed in the database; no cut-off is given here.
# Columns and labels:
# Calf thymus DNA [1] = assay: Binding affinity to calf thymus double stranded DNA at pH 7 by fluorometric titration method; assay type: nucleic-acid assay; conditions: Bos taurus
# Nucleic Acid [2] = assay: Binding affinity to double stranded RNA at pH 7 by fluorometric titration method; assay type: nucleic-acid assay
# Nucleic Acid [3] = assay: Binding affinity to poly A-poly U at pH 7 by fluorometric titration method; assay type: nucleic-acid assay
# Calf thymus DNA [4] = assay: Binding affinity to calf thymus double helix DNA assessed as thermal denaturation-associated change in melting temperature at pH 7 by tangent method; assay type: nucleic-acid assay; conditions: Bos taurus
# Nucleic Acid [5] = assay: Binding affinity to poly A-poly U assessed as thermal denaturation-associated change in melting temperature at pH 7 by tangent method; assay type: nucleic-acid assay
# Nucleic Acid [6] = assay: Binding affinity to poly A single stranded RNA at pH 7 by fluorometric titration method; assay type: nucleic-acid assay
# Nucleic Acid [7] = assay: Binding affinity to poly G single stranded RNA at pH 7 by fluorometric titration method; assay type: nucleic-acid assay
# Nucleic Acid [8] = assay: Binding affinity to poly C single stranded RNA at pH 7 by fluorometric titration method; assay type: nucleic-acid assay
# Nucleic Acid [9] = assay: Binding affinity to poly U single stranded RNA at pH 7 by fluorometric titration method; assay type: nucleic-acid assay
# SW-620 = assay: Cytotoxicity against human SW620 cells after 72 hrs by MTT assay; assay type: functional, cell-based; conditions: SW-620, 72 h
# HT-29 = assay: Cytotoxicity against human HT-29 cells after 72 hrs by MTT assay; assay type: functional, cell-based; conditions: HT-29, 72 h
# Caco-2 = assay: Cytotoxicity against human Caco-2 cells after 72 hrs by MTT assay; assay type: functional, cell-based; conditions: Caco-2, 72 h
# HeLa [10] = assay: Cytotoxicity against human HeLa cells after 72 hrs by MTT assay; assay type: functional, cell-based
# MIA PaCa-2 = assay: Cytotoxicity against human MIAPaCa2 cells after 72 hrs by MTT assay; assay type: functional, cell-based; conditions: MIA PaCa-2, 72 h
# [11] = Cytotoxicity against human Hep2 cells after 72 hrs by MTT assay; assay type: cell-based; conditions: HEp-2, 72 h
# NCI-H358 = assay: Cytotoxicity against human NCI-H358 cells after 72 hrs by MTT assay; assay type: functional, cell-based; conditions: NCI-H358, 72 h
# K562 = assay: Cytotoxicity against human K562 cells after 72 hrs by MTT assay; assay type: functional, cell-based; conditions: K562, 72 h
# Jurkat = assay: Cytotoxicity against human Jurkat cells after 72 hrs by MTT assay; assay type: functional, cell-based
# HuT78 = assay: Cytotoxicity against human HUT78 cells after 72 hrs by MTT assay; assay type: functional, cell-based; conditions: HuT78, 72 h
# [12] = Cytotoxicity against HAEC after 72 hrs by MTT assay; set-up: species or system Homo sapiens
# [13] = Cytotoxicity against human lymphocytes after 72 hrs by MTT assay; assay type: cell-based; conditions: Lymphocyte
# HeLa [14] = assay: Cytotoxicity against human HeLa cells at 0.1 uM after 60 mins by DAPI staining-based visible light microscopy; assay type: functional, cell-based
# Nucleic Acid [15] = assay: Binding affinity to nuclear DNA in human HeLa cells at 0.1 uM after 60 mins by DAPI staining-based fluorescence microscopy; assay type: cell-based
structure (smiles),measurement,setting,value
CCOc1ccc2c(c1)SC1=N/C(=C\c3oc4ccccc4[n+]3C)C=C(C)N12.[O-][Cl+3]([O-])([O-])[O-],log Ks,Calf thymus DNA [1],4.7
same,Activity,Nucleic Acid [2],Active
same,log Ks,Nucleic Acid [3],4.5
same,ΔTm,Calf thymus DNA [4],4 °C
same,ΔTm,Nucleic Acid [5],0 °C
same,Activity,Nucleic Acid [6],Active
same,log Ks,Nucleic Acid [7],> 6
same,log Ks,Nucleic Acid [8],< 4
same,log Ks,Nucleic Acid [9],< 4
same,IC50,SW-620,100 nM
same,IC50,HT-29,0.6 µM
same,IC50,Caco-2,0.8 µM
same,IC50,HeLa [10],2 µM
same,IC50,MIA PaCa-2,100 nM
same,IC50,[11],500 nM
same,IC50,NCI-H358,100 nM
same,IC50,K562,1 nM
same,IC50,Jurkat,90 nM
same,IC50,HuT78,50 nM
same,IC50,[12],1 µM
same,IC50,[13],10 nM
CC1=C/C(=C/c2sc3ccccc3[n+]2C)N=C2C=CC=CN12.[O-][Cl+3]([O-])([O-])[O-],Activity,Calf thymus DNA [1],inactive
same,Activity,Nucleic Acid [2],inactive
same,ΔTm,Calf thymus DNA [4],1.9 °C
same,ΔTm,Nucleic Acid [5],10.4 °C
same,Activity,Nucleic Acid [6],inactive
same,Activity,Nucleic Acid [7],inactive
same,Activity,Nucleic Acid [8],inactive
same,Activity,Nucleic Acid [9],inactive
same,IC50,SW-620,7000 nM
same,IC50,HT-29,5.2 µM
same,IC50,Caco-2,10.1 µM
same,IC50,HeLa [10],9.9 µM
same,IC50,MIA PaCa-2,1800 nM
same,IC50,[11],3600 nM
same,IC50,NCI-H358,2000 nM
same,IC50,K562,90 nM
same,IC50,Jurkat,1300 nM
same,IC50,HuT78,200 nM
same,IC50,[12],9.6 µM
same,IC50,[13],600 nM
COc1ccc2c(c1)SC1=N/C(=C\c3oc4ccccc4[n+]3C)C=C(C)N12.[O-][Cl+3]([O-])([O-])[O-],log Ks,Calf thymus DNA [1],5
same,Activity,Nucleic Acid [2],Active
same,ΔTm,Calf thymus DNA [4],2.7 °C
same,ΔTm,Nucleic Acid [5],0 °C
same,Activity,Nucleic Acid [6],Active
same,log Ks,Nucleic Acid [7],> 6
same,log Ks,Nucleic Acid [8],< 4
same,log Ks,Nucleic Acid [9],< 4
same,IC50,SW-620,600 nM
same,IC50,HT-29,0.5 µM
same,IC50,Caco-2,1 µM
same,IC50,HeLa [10],2.1 µM
same,IC50,MIA PaCa-2,500 nM
same,IC50,[11],700 nM
same,IC50,NCI-H358,800 nM
same,IC50,K562,1 nM
same,IC50,Jurkat,500 nM
same,IC50,HuT78,100 nM
same,IC50,[12],1.1 µM
same,IC50,[13],40 nM
same,Activity,HeLa [14],inactive
same,Activity,Nucleic Acid [15],inactive
CC1=C/C(=C/c2oc3ccccc3[n+]2C)N=C2Sc3cc(Cl)ccc3N12.[O-][Cl+3]([O-])([O-])[O-],log Ks,Calf thymus DNA [1],4.6
same,Activity,Nucleic Acid [2],Active
same,log Ks,Nucleic Acid [3],4.5
same,ΔTm,Calf thymus DNA [4],1 °C
same,ΔTm,Nucleic Acid [5],0 °C
same,Activity,Nucleic Acid [6],Active
same,log Ks,Nucleic Acid [7],> 6
same,log Ks,Nucleic Acid [8],< 4
same,log Ks,Nucleic Acid [9],< 4
same,IC50,SW-620,5800 nM
same,IC50,HT-29,5.1 µM
same,IC50,Caco-2,8.2 µM
same,IC50,HeLa [10],3.9 µM
same,IC50,MIA PaCa-2,2100 nM
same,IC50,[11],7000 nM
same,IC50,NCI-H358,1100 nM
same,IC50,K562,60 nM
same,IC50,Jurkat,520 nM
same,IC50,HuT78,60 nM
same,IC50,[12],50.3 µM
same,IC50,[13],90 nM
CC1=C/C(=C/c2sc3ccccc3[n+]2C)N=C2Sc3cc(OCCO)ccc3N12.[O-][Cl+3]([O-])([O-])[O-],log Ks,Calf thymus DNA [1],4.8
same,Activity,Nucleic Acid [2],Active
same,log Ks,Nucleic Acid [3],4.5
same,ΔTm,Calf thymus DNA [4],1.3 °C
same,ΔTm,Nucleic Acid [5],0 °C
same,Activity,Nucleic Acid [6],Active
same,log Ks,Nucleic Acid [7],> 6
same,log Ks,Nucleic Acid [8],< 4
same,log Ks,Nucleic Acid [9],< 4
same,IC50,SW-620,550 nM
same,IC50,HT-29,1.1 µM
same,IC50,Caco-2,> 100 µM
same,IC50,HeLa [10],80 µM
same,IC50,MIA PaCa-2,510 nM
same,IC50,[11],930 nM
same,IC50,NCI-H358,2100 nM
same,IC50,K562,60 nM
same,IC50,Jurkat,900 nM
same,IC50,HuT78,500 nM
same,IC50,[12],> 200 µM
same,IC50,[13],1200 nM
CC1=C/C(=C/c2oc3ccccc3[n+]2C)N=C2Sc3cc(OCCO)ccc3N12.[O-][Cl+3]([O-])([O-])[O-],log Ks,Calf thymus DNA [1],4.6
same,Activity,Nucleic Acid [2],Active
same,log Ks,Nucleic Acid [3],4.3
same,ΔTm,Calf thymus DNA [4],0.8 °C
same,ΔTm,Nucleic Acid [5],0 °C
same,Activity,Nucleic Acid [6],Active
same,log Ks,Nucleic Acid [7],> 6
same,log Ks,Nucleic Acid [8],< 4
same,log Ks,Nucleic Acid [9],< 4
same,IC50,SW-620,5200 nM
same,IC50,HT-29,7.2 µM
same,IC50,Caco-2,40 µM
same,IC50,HeLa [10],80 µM
same,IC50,MIA PaCa-2,8500 nM
same,IC50,[11],6800 nM
same,IC50,NCI-H358,9000 nM
same,IC50,K562,70 nM
same,IC50,Jurkat,6600 nM
same,IC50,HuT78,700 nM
same,IC50,[12],70 µM
same,IC50,[13],590 nM
CC1=C/C(=C/c2oc3ccccc3[n+]2C)C(C#N)=C2Sc3ccccc3N12.[O-][Cl+3]([O-])([O-])[O-],log Ks,Calf thymus DNA [1],5.1
same,Activity,Nucleic Acid [2],Active
same,log Ks,Nucleic Acid [3],6.8
same,ΔTm,Calf thymus DNA [4],4.1 °C
same,ΔTm,Nucleic Acid [5],19.5 °C
same,log Ks,Nucleic Acid [6],6.2
same,log Ks,Nucleic Acid [7],> 6
same,log Ks,Nucleic Acid [8],< 4
same,log Ks,Nucleic Acid [9],< 4
same,IC50,SW-620,6800 nM
same,IC50,HT-29,5.9 µM
same,IC50,Caco-2,9.6 µM
same,IC50,HeLa [10],8.2 µM
same,IC50,MIA PaCa-2,2200 nM
same,IC50,[11],5500 nM
same,IC50,NCI-H358,2400 nM
same,IC50,K562,50 nM
same,IC50,Jurkat,3900 nM
same,IC50,HuT78,500 nM
same,IC50,[12],50.1 µM
same,IC50,[13],100 nM
COc1ccc2c(c1)SC1=N/C(=C\c3sc4ccccc4[n+]3C)C=C(C)N12.[O-][Cl+3]([O-])([O-])[O-],log Ks,Calf thymus DNA [1],4.5
same,Activity,Nucleic Acid [2],Active
same,log Ks,Nucleic Acid [3],4.2
same,ΔTm,Calf thymus DNA [4],3 °C
same,ΔTm,Nucleic Acid [5],0 °C
same,Activity,Nucleic Acid [6],Active
same,log Ks,Nucleic Acid [7],> 6
same,log Ks,Nucleic Acid [8],< 4
same,log Ks,Nucleic Acid [9],< 4
same,IC50,SW-620,200 nM
same,IC50,HT-29,0.5 µM
same,IC50,Caco-2,0.8 µM
same,IC50,HeLa [10],0.5 µM
same,IC50,MIA PaCa-2,60 nM
same,IC50,[11],500 nM
same,IC50,NCI-H358,600 nM
same,IC50,K562,1 nM
same,IC50,Jurkat,100 nM
same,IC50,HuT78,10 nM
same,IC50,[12],3.3 µM
same,IC50,[13],100 nM
same,Activity,HeLa [14],inactive
same,Activity,Nucleic Acid [15],inactive
